Measured values: US8575197B2, “Pyrolinone derivative and pharmaceutical composition comprising the same” (Shionogi & Co., Ltd., priority 2008, dated 2013)

target: human P2X3 receptor (Homo sapiens (Human), UniProt P56373); assay: P2X3 receptor inhibition, ATP-evoked Fluo-3 calcium fluorescence (FDSS 3000); format: cell-based; conditions: C6BU-1 cell transfected with human P2X3 receptor gene; ATP-evoked Fluo-3 fluorescence
Summary of the method: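 C6BU-1 cells stably transfected with human P2X3, loaded with 4 μM Fluo-3-AM for 1 h at 37 °C in HEPES buffer pH 7.5 with probenecid. Compound added 5 min before 40 nM ATP solution; fluorescence followed 3 min. IC50 from ratio of peak post-ATP to baseline fluorescence.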

human P2X3 receptor, sequence (P56373 whole entry): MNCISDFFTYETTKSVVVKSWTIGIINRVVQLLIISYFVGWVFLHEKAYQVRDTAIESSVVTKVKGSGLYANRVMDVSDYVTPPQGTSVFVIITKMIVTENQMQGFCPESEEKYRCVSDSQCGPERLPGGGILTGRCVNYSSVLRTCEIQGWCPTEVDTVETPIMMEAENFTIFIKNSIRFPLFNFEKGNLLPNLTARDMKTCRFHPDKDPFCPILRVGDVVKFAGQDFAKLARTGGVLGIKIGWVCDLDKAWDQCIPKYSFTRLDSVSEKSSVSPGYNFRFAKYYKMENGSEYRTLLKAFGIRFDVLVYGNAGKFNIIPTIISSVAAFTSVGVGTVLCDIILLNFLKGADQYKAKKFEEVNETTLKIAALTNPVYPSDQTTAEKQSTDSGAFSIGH

Row | IC50 [µM] | Compound
1 | 0.015 | COCCc1ccccc1C1C(C(=O)C(C)C)=C(O)C(=O)N1c1ccc(-c2ccsc2)cc1 (stereo not drawn) [Compound I-247]
2 | 0.043 | COCCOc1ccccc1C1C(C(=O)C(C)(C)C)=C(O)C(=O)N1c1ccc(-c2ccco2)cc1 (stereo not drawn) [Compound I-132]
3 | 0.019 | COCCOc1cc(F)ccc1C1C(C(=O)C(C)C)=C(O)C(=O)N1c1ccc(-c2ccoc2)cc1 (stereo not drawn) [Compound I-367]
4 | 0.429 | Cc1ccc(-c2ccc(N3C(=O)C(O)=C(C(=O)CC(C)C)C3c3cccnc3C(=O)N3CCCC3)cc2)s1 (stereo not drawn) [Compound I-579]
5 | 0.018 | CC(C)C(=O)C1=C(O)C(=O)N(c2ccc(-c3ccsc3)cc2)C1c1cccnc1N1CCOCC1 (stereo not drawn) [Compound I-525]
6 | 0.005 | CC(C)(C)C(=O)C1=C(O)C(=O)N(c2ccc(-c3ccsc3)cc2)C1c1ccccc1OCC#N (stereo not drawn) [Compound I-180]
7 | 0.022 | COc1ccccc1C1C(C(=O)C(C)C)=C(O)C(=O)N1c1ccc(-c2cccs2)cc1 (stereo not drawn) [Compound I-214]
8 | 0.065 | CC(C)C(=O)C1=C(O)C(=O)N(c2ccc(-c3ccco3)cc2)C1c1ccccc1OCCO (stereo not drawn) [Compound I-225]
9 | 0.014 | COCCOc1ccccc1[C@@H]1C(C(=O)C(C)C)=C(O)C(=O)N1c1ccc(-c2ccoc2)cc1 [Compound I-208]
10 | 0.04 | CCC(CC)C1C(C(=O)c2ccc(C(=O)N(C)C)cc2)=C(O)C(=O)N1c1ccc(-c2ccon2)cc1 (stereo not drawn) [Compound I-003]
11 | 0.08 | Cc1ccc(-c2ccc(N3C(=O)C(O)=C(C(=O)CC(C)C)C3c3ccccc3OC(C)C)cc2)s1 (stereo not drawn) [Compound I-402]
12 | 0.216 | COCCOc1ccccc1C1C(C(=O)C(C)(C)C)=C(O)C(=O)N1c1ccc(-c2cc[nH]c2)cc1 (stereo not drawn) [Compound I-153]
13 | 0.098 | CC(C)(C)C(=O)C1=C(O)C(=O)N(c2ccc(-c3cccs3)cc2)C1c1ccccc1OCC(=O)O (stereo not drawn) [Compound I-119]
14 | 0.005 | CC(C)CC(=O)C1=C(O)C(=O)N(c2ccc(-c3ccsc3)cc2)C1c1ccccc1N1CCOCC1 (stereo not drawn) [Compound I-442]
15 | 0.16 | COc1ccc(C(=O)C2=C(O)C(=O)N(c3ccc(-c4nc(C)no4)cc3)C2c2ccccc2OC)cc1 (stereo not drawn) [Compound I-032]
16 | 0.339 | O=C(C1=C(O)C(=O)N(c2ccc(-c3ccon3)cc2)C1C1CCCCC1)c1ccc(OC(F)(F)F)cc1 (stereo not drawn) [Compound I-026]

Row | IC50 [µM] | Compound
17 | 0.222 | Cc1nc(-c2ccc(N3C(=O)C(O)=C(C(=O)CC(C)C)C3c3ccccc3OC(F)(F)F)cc2)no1 (stereo not drawn) [Compound I-319]
18 | 0.032 | Cc1ccc(-c2ccc(N3C(=O)C(O)=C(C(=O)C(C)C)C3c3ccccc3CCC(N)=O)cc2)o1 (stereo not drawn) [Compound I-536]
19 | 0.444 | COc1ccccc1C1C(C(=O)CC(C)(C)C(=O)O)=C(O)C(=O)N1c1ccc(-c2ccsc2)cc1 (stereo not drawn) [Compound I-557]
20 | 0.105 | COc1ccccc1C1c2c(CC(C)(C)C)n[nH]c2C(=O)N1c1ccc(-c2ccon2)cc1 (stereo not drawn) [II-073]
21 | 0.017 | Cc1nc(-c2ccc(N3C(=O)C(O)=C(C(=O)C(C)C)C3c3ccccc3OC3CCCC3)cc2)no1 (stereo not drawn) [Compound I-503]
22 | 0.133 | Cc1nc(-c2ccc(N3C(=O)C(O)=C(C(=O)C(C)C)C3c3ccccc3OCC#N)cc2)no1 (stereo not drawn) [Compound I-508]
23 | 0.016 | COc1ccccc1[C@@H]1C(C(=O)CC(C)C)=C(O)C(=O)N1c1ccc(-c2ccsc2)cc1 [Compound I-279]
24 | 0.019 | Cc1ccc(-c2ccc(N3C(=O)C(O)=C(C(=O)CC(C)C)C3c3ccccc3OCCO)cc2)o1 (stereo not drawn) [Compound I-384]
25 | 0.103 | Cc1ccc(-c2ccc(N3C(=O)C(O)=C(C(=O)CC(C)C)C3c3ccccc3OC(F)F)cc2)s1 (stereo not drawn) [Compound I-337]
26 | 0.117 | COCCOc1ncccc1C1c2c(C(C)(C)C)n[nH]c2C(=O)N1c1ccc(-c2ccon2)cc1 (stereo not drawn) [II-033]
27 | 0.548 | COc1ccc(-c2n[nH]c3c2C(C2CCCCC2)N(c2ccc4[nH]ccc4c2)C3=O)cc1 (stereo not drawn) [II-055]
28 | 0.138 | CN(C)C(=O)c1ccccc1C1C(C(=O)C2CCCC2)=C(O)C(=O)N1c1ccc(-c2ccsc2)cc1 (stereo not drawn) [Compound I-514]
29 | 0.09 | CC(C)(C)c1n[nH]c2c1C(c1ccccc1OCC(=O)O)N(c1ccc(-c3ccon3)cc1)C2=O (stereo not drawn) [II-029]
30 | 0.077 | Cc1ccc(-c2ccc(N3C(=O)C(O)=C(C(=O)C(C)C)C3c3ccccc3S(C)(=O)=O)cc2)o1 (stereo not drawn) [Compound I-548]
31 | 0.051 | CC(C)CC(=O)C1=C(O)C(=O)N(c2ccc(-c3ccsc3)cc2)C1c1ccccc1OC(F)F (stereo not drawn) [Compound I-290]

Second part, the molecule before the results:

Row | Compound | IC50 [µM]
32 | CC(C)(C)c1n[nH]c2c1C(c1cccc[n+]1[O-])N(c1ccc(-c3cccs3)cc1)C2=O (stereo not drawn) [II-164] | 0.036
33 | COCCOc1ncccc1C1C(C(=O)C(C)C)=C(O)C(=O)N1c1ccc(-c2cccs2)cc1 (stereo not drawn) [Compound I-228] | 0.015
34 | Cc1cc(-c2ccc(N3C(=O)C(O)=C(C(=O)CC(C)C)C3c3ccccc3C(=O)N3CCOCC3)cc2)cs1 (stereo not drawn) [Compound I-505] | 0.168
35 | COCCOc1ccccc1C1C(C(=O)CC(C)C)=C(O)C(=O)N1c1ccc(-c2csc(C)n2)cc1 (stereo not drawn) [Compound I-427] | 0.331
36 | COc1ccccc1C1c2c(C(C)(C)C)n[nH]c2C(=O)N1c1ccc(C(C)C)cc1 (stereo not drawn) [II-197] | 0.106
37 | CC(C)c1n[nH]c2c1C(c1ccccc1OCC(N)=O)N(c1ccc(-c3ccsc3)cc1)C2=O (stereo not drawn) [II-050] | 0.007
38 | COCCOc1cc(F)ccc1C1C(C(=O)C(C)C)=C(O)C(=O)N1c1ccc(-c2noc(C)n2)cc1 (stereo not drawn) [Compound I-369] | 0.091
39 | COc1ccccc1C1C(C(=O)C(C)(C)C)=C(O)C(=O)N1c1ccc(C(C)(C)C)cc1 (stereo not drawn) [Compound I-046] | 0.58
40 | CC(C)c1n[nH]c2c1C(c1ccccc1C(=O)O)N(c1ccc(-c3ccsc3)cc1)C2=O (stereo not drawn) [II-089] | 0.107
41 | COCCOc1ccccc1C1C(C(=O)CC(C)C)=C(O)C(=O)N1c1ccc(-c2cscn2)cc1 (stereo not drawn) [Compound I-421] | 0.191
42 | CC(C)c1n[nH]c2c1C(c1cccnc1OCCO)N(c1ccc(-c3ccsc3)cc1)C2=O (stereo not drawn) [II-045] | 0.016
43 | COc1ccccc1C1C(C(=O)C(C)C)=C(O)C(=O)N1c1ccc(-c2ccsc2)c(F)c1 (stereo not drawn) [Compound I-235] | 0.035
44 | Cc1ccc(-c2ccc(N3C(=O)C(O)=C(C(=O)CC(C)C)C3c3cccnc3C(=O)NN(C)C)cc2)s1 (stereo not drawn) [Compound I-576] | 0.237
45 | COCCOc1ccccc1C1C(C(=O)C(C)(C)C)=C(O)C(=O)N1c1ccc(-c2cccs2)cc1 (stereo not drawn) [Compound I-123] | 0.013
46 | COc1ccccc1C1c2c(C(C)C)n[nH]c2C(=O)N1c1ccc(-c2ccsc2)c(F)c1 (stereo not drawn) [II-238] | 0.019
47 | COc1ccc(N2C(=O)c3[nH]nc(C(C)(C)C)c3C2c2ccccc2OC)cc1 (stereo not drawn) [II-098] | 0.761
48 | COc1ncccc1C1C(C(=O)CC(C)C)=C(O)C(=O)N1c1ccc(-c2csc(C)c2)cc1 (stereo not drawn) [Compound I-371] | 0.447
49 | COc1ccccc1C1c2c(C(C)(C)C)n[nH]c2C(=O)N1c1ccc(-c2ccsc2Cl)cc1 (stereo not drawn) [II-272] | 0.392
50 | Cc1ccc(-c2ccc(N3C(=O)C(O)=C(C(=O)C(C)C)C3c3cccnc3OCCCO)cc2)s1 (stereo not drawn) [Compound I-568] | 0.066
51 | COC(=O)Nc1ccccc1C1c2c(C(C)C)n[nH]c2C(=O)N1c1ccc(-c2ccsc2)cc1 (stereo not drawn) [II-095] | 0.012
52 | CC(C)c1n[nH]c2c1C(c1ccccc1OCC(C)(C)O)N(c1ccc(-c3ccsc3)cc1)C2=O (stereo not drawn) [II-184] | 0.012

Row | Compound | IC50 [µM]
53 | COc1ccccc1C1C(C(=O)C(C)C)=C(O)C(=O)N1c1ccc(-c2ccsc2)c(N)c1 (stereo not drawn) [Compound I-237] | 0.705
54 | COCCOc1ncccc1C1c2c(C(C)C)n[nH]c2C(=O)N1c1ccc(-c2ccsc2)cc1 (stereo not drawn) [II-278] | 0.013
55 | COc1ncccc1C1c2c(C(C)(C)C)n[nH]c2C(=O)N1c1ccc(-c2nccs2)cc1 (stereo not drawn) [II-193] | 0.195
56 | CNC(=O)COc1ncccc1C1c2c(C(C)C)n[nH]c2C(=O)N1c1ccc(-c2ccsc2)cc1 (stereo not drawn) [II-053] | 0.035
57 | COc1ncccc1C1c2c(C(C)(C)C)n[nH]c2C(=O)N1c1ccc(-c2ccco2)cn1 (stereo not drawn) [II-263] | 0.108
58 | CC(C)Oc1ccccc1C1C(C(=O)C(C)C)=C(O)C(=O)N1c1ccc(-c2ccsc2)cc1 (stereo not drawn) [Compound I-299] | 0.008
59 | COc1ccccc1C1C(C(=O)C(C)C)=C(O)C(=O)N1c1ccc(SC)cc1 (stereo not drawn) [Compound I-473] | 0.182
60 | Cc1cc(-c2ccc(N3C(=O)C(O)=C(C(=O)C(C)C)C3c3ccccc3OC(C)C)cc2)cs1 (stereo not drawn) [Compound I-419] | 0.032
61 | COc1ccccc1C1c2c(C(C)(C)COC(C)=O)n[nH]c2C(=O)N1c1ccc(SC)cc1 (stereo not drawn) [II-010] | 0.134
62 | COCc1ccccc1C1C(C(=O)CC(C)C)=C(O)C(=O)N1c1ccc(-c2csc(C)c2)cc1 (stereo not drawn) [Compound I-376] | 0.025
63 | COCCOc1ncccc1C1c2c(C(C)C)n[nH]c2C(=O)N1c1ccc(-c2noc(C)n2)cc1 (stereo not drawn) [II-280] | 0.244
64 | COC(=O)COc1ccccc1C1C(C(=O)C(C)(C)C)=C(O)C(=O)N1c1ccc(-c2ccsc2)cc1 (stereo not drawn) [Compound I-114] | 0.012
65 | CC(C)C(=O)C1=C(O)C(=O)N(c2ccc(-c3ccsc3)cc2)C1c1ccccc1OCCN(C)C (stereo not drawn) [Compound I-158] | 0.023
66 | COc1ccc(F)cc1C1C(C(=O)C(C)C)=C(O)C(=O)N1c1ccc(-c2csc(C)c2)cc1 (stereo not drawn) [Compound I-453] | 0.041
67 | CC(C)(C)c1n[nH]c2c1C(c1ccccc1OCc1nnn[nH]1)N(c1ccc(-c3ccsc3)cc1)C2=O (stereo not drawn) [II-174] | 0.003
68 | COc1ncccc1C1c2c(C(C)(C)C)n[nH]c2C(=O)N1c1ccc(-c2ccoc2)cn1 (stereo not drawn) [II-261] | 0.14
69 | CCN(C)C(=O)c1ccccc1C1C(C(=O)C(C)C)=C(O)C(=O)N1c1ccc(-c2ccc(C)o2)cc1 (stereo not drawn) [Compound I-495] | 0.059
70 | COc1ncccc1C1C(C(=O)C(C)(C)C)=C(O)C(=O)N1c1ccc(SC)cc1 (stereo not drawn) [Compound I-066] | 0.434
71 | COc1ccc2nc(N3C(=O)c4[nH]nc(C(C)(C)CO)c4C3c3ccccc3OC)sc2c1 (stereo not drawn) [II-142] | 0.104
72 | CC(C)OCc1ccccc1C1C(C(=O)C(C)C)=C(O)C(=O)N1c1ccc(-c2ccsc2)cc1 (stereo not drawn) [Compound I-541] | 0.01
